This assay has as its target T1, 5-hydroxytryptamine receptor 1A (Homo sapiens, UniProt P08908).
T1 sequence (P08908 whole entry): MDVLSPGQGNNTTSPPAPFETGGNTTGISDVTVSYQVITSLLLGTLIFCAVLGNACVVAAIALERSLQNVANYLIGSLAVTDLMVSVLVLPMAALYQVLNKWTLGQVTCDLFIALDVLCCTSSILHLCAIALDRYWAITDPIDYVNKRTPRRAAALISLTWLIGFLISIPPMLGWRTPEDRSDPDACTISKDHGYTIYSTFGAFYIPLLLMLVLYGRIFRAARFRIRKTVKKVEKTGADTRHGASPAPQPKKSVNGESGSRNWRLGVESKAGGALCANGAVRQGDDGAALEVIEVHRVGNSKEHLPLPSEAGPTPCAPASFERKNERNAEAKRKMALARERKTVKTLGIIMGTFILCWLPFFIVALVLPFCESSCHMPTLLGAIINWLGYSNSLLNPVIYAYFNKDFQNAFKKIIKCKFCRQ
The assay is described as follows: serotonin 1A receptor activation, dose response (AID 718). The note with it: pH 7.4, 23 °C.

Where [1] appears, read: inactive by the depositor's call.

Molecules are shown by their SMILES.

For the compound `Cn1c(-c2c(N)n(C3CCCC3)c3nc4ccccc4nc23)nc2ccccc21` [1-cyclopentyl-3-(1-methyl-2-benzimidazolyl)-2-pyrrolo[3,2-b]quinoxalinamine], it took 2.38 µM to reach half-maximal inhibition (IC50). On the same count and under the same terms, then `O=C(Nc1ccc(N2CCOCC2)cc1)Nc1ccc2nc(-c3ccco3)c(-c3ccco3)nc2c1` [N-(2,3-di-2-furyl-6-quinoxalinyl)-N'-[4-(4-morpholinyl)phenyl]urea], with 2.29 µM.

`COC(=O)Nc1nc2ccc(Sc3ccccc3)cc2[nH]1` [FENBENDAZOLE] showed an IC50 under setting [1] of 40 µM. In other words, the double-digit micromolar range. Take `COc1ccccc1-c1nnc2n1N=C(c1ccc(O)c(O)c1)CS2` [(4E)-4-[3-(2-methoxyphenyl)-5H-[1,2,4]triazolo[3,4-b][1,3,4]thiadiazin-6-ylidene]-2-oxidanyl-cyclohexa-2,5-dien-1-one]: the midpoint of inhibition, the IC50, lay at 40 µM. In other words, the double-digit micromolar range. Same read-out and setting: then `Cc1ccc(-n2nc3c([n+]2[O-])CCc2c-3n[o+]n2[O-])cc1` [7-(4-methylphenyl)-3,6-dioxido-4,5-dihydrotriazolo[4,5-e][2,1,3]benzoxadiazole-3,6-diium], with 3.26 µM; and `CCN(CC)c1ccc2c(Cl)c(Br)c(=O)oc2c1`, with 2.3 µM.

`O=S1(=O)C=C(Sc2nnc(-c3ccccc3)o2)c2ccccc21` came in with an IC50 of 2.48 µM. `CCOc1cccc(-c2nnc3n2N=C(c2cc(OC)ccc2OC)CS3)c1` [MLS000081451] showed an IC50 under setting [1] of 22.2 µM.

On to `CCCOCCOC(=O)c1[nH]c2c(c1C)C(=O)CC(c1cc(OC)ccc1OC)C2` (configuration not stated), for which the IC50 under setting [1] was 40 µM. In the case of `COc1cccc(N2CCN(c3ncnc4c3[nH]c3ccc(F)cc34)CC2C)c1` (configuration not stated) [8-fluoranyl-4-[4-(3-methoxyphenyl)-3-methyl-piperazin-1-yl]-5H-pyrimido[5,4-b]indole], the IC50 came out at 0.866 µM. This counts as sub-micromolar. For `CS(=O)(=O)c1nc(-c2ccco2)cc(C(F)(F)F)n1` [MLS000044646], half-maximal inhibition (IC50) required 3.3 µM. `CS(=O)(=O)c1nc(-c2cccs2)cc(C(F)(F)F)n1` [MLS000044645] gave an IC50 of 2.44 µM.

As for `COc1cccc(N2CCN(c3ncnc4c3[nH]c3ccccc34)CC2C)c1` (configuration not stated) [4-[4-(3-methoxyphenyl)-3-methyl-1-piperazinyl]-5H-pyrimido[5,4-b]indole], the IC50 is 3.31 µM. The IC50 values of the last two compounds are within 1.5-fold of each other. Consider `OCC12C=CC(O1)c1c2c(O)n(-c2ccc(-c3ccccc3)cc2)c1O` (configuration not stated), for which the IC50 amounted to 11.6 µM.

Compound `COc1ccc(-n2nnnc2S(=O)(=O)CC(=O)N2CCCCC2)cc1` [2-[1-(4-methoxyphenyl)tetrazol-5-yl]sulfonyl-1-piperidin-1-ylethanone] returned a half-inhibitory concentration (IC50) of 2.6 µM. Take `CC(C)=CCC(C)(C)CNC(=O)NC1CCCCC1`: half-maximal inhibition under setting [1] (IC50) required 40 µM. For the compound `Cc1ccc(S(=O)(=O)Nc2cccc3ncccc23)s1` [5-methyl-N-quinolin-5-ylthiophene-2-sulfonamide], the half-maximal inhibitory concentration (IC50) came to 1.1 µM. Regarding `COc1cc2c(cc1OC)-c1cc(N3CCCc4ccccc43)nc(=O)n1CC2` [2-(3,4-dihydro-2H-quinolin-1-yl)-9,10-dimethoxy-6,7-dihydropyrimido[6,1-a]isoquinolin-4-one], under setting [1], the IC50 stood at 25 µM. `CCC(NC(=O)Nc1nnc(C(F)(F)F)s1)(C(F)(F)F)C(F)(F)F` gave an IC50 of 6.92 µM. As for `Clc1ccc(-n2nnnc2Sc2ncnc3sccc23)cc1` [SMR000066808], half-maximal inhibition (IC50) was put at 4.85 µM. The compound `O=C(Nc1ccc(-c2nc3ncccc3o2)cc1)c1ccc(Br)o1` showed an IC50 of 8.32 µM. As to `CCCOc1ccc2nc(NC(=O)OC)[nH]c2c1` [SMR000058208], under setting [1], the IC50 came to 40 µM. This lies in the double-digit micromolar range. The same measure, in the same setting: then `CN(C)c1nc(OCCNC(=O)COc2ccc(Cl)cc2Cl)nc(N2CCCCC2)n1` [SMR000072558], with 40 µM. The compound `COc1ccc(-c2cc(C(F)(F)F)nc(S(C)(=O)=O)n2)cc1OC` [4-(3,4-dimethoxyphenyl)-2-methylsulfonyl-6-(trifluoromethyl)pyrimidine] came in with an IC50 of 3.59 µM. As for `CCn1nc(-c2ccccc2)nc2c(=O)n(C)c(=O)nc1-2` [1-Ethyl-6-methyl-3-phenyl-1H-pyrimido[5,4-e][1,2,4]triazine-5,7-dione], the IC50 amounted to 0.581 µM. On to `CCn1c(=O)c(C(=O)Nc2nc3ccccc3[nH]2)c(O)c2ccccc21` [MLS000027148], for which the concentration for half-maximal inhibition (IC50) under setting [1] was 40 µM. As for `N#CCCS(=O)(=O)c1nnnn1-c1ccccc1` [3-(1-phenyltetrazol-5-yl)sulfonylpropanenitrile], inhibition was half-maximal at 2.9 µM (IC50). On the same count and under the same terms, the value for `CC(=O)Oc1ccc(-n2c(O)c3c(c2O)C2(C)C=CC3(C)O2)cc1` [MLS000107813] was 7.33 µM. The same measure, in the same setting: the value for `CS(=O)(=O)c1nc(-c2ccccc2)cc(C(F)(F)F)n1` [MLS000044644] was 2.28 µM. `COc1ccc(C2N(c3ccc(F)cc3)C(=O)C3CCCN32)cc1` (configuration not stated) [SMR000094164] registered an IC50 under setting [1] of 40 µM.

Consider `COc1cc2c(cc1OC)C1=C(C#N)CC=C(NS(=O)(=O)c3ccccc3)N1CC2` [SMR000092093], for which the IC50 came to 40 µM. Still for that read-out and setting: the value for `COC(=O)/C(=C1/Oc2cc(C)oc(=O)c2S1)C(F)(F)F` [methyl (2E)-3,3,3-tris(fluoranyl)-2-(6-methyl-4-oxidanylidene-[1,3]oxathiolo[4,5-c]pyran-2-ylidene)propanoate] was 1.24 µM; that for `COc1cccc(N2CCN(c3ncnc4c3cnn4-c3ccc(C)cc3C)CC2)c1` [SMR000017007] was 4.78 µM. Same read-out and setting: then `CSc1ccccc1NC=C1C(=O)CC(C)(C)CC1=O` [SMR000111352], with 1.88 µM; and `COc1ccc(-n2c(O)cc(NCc3ccncc3)c2O)cc1` [MLS000099014], with 40 µM; and `CC(=O)Nc1cc(OC(C)=O)c2nonc2c1OC(C)=O` [Acetic acid 7-acetoxy-5-acetylamino-benzo[1,2,5]oxadiazol-4-yl ester], with 1.78 µM. `N#C/C(=C/c1ccc(N2CCCCCC2)o1)c1ccc(F)cc1` [MLS000051438] displayed an IC50 under setting [1] of 10.9 µM. `COc1cc(NS(=O)(=O)c2ccc(C)cc2)c2ncccc2c1` [SMR000071147] returned an IC50 of 0.823 µM. `COCCOC(=O)c1[nH]c2c(c1C)C(=O)CC(c1ccccc1)C2` (configuration not stated) [SMR000025505] gave an IC50 under setting [1] of 40 µM. Compound `CCn1nc(-c2cccs2)nc2c(=O)n(C)c(=O)nc1-2` [1-ethyl-6-methyl-3-thiophen-2-yl-pyrimido[5,4-e][1,2,4]triazine-5,7-dione] gave an IC50 of 0.421 µM. Compound `CCOc1ccc(C2=Nn3c(nnc3-c3ccccc3OC)SC2)cc1` [6-(4-ethoxyphenyl)-3-(2-methoxyphenyl)-7H-[1,2,4]triazolo[3,4-b][1,3,4]thiadiazine] displayed an IC50 under setting [1] of 25 µM. Consider `CCCc1nnc2n1N=C(c1ccc(OC)c(OC)c1)CS2` [SMR000057783], for which inhibition was half-maximal at 40 µM (IC50).

The record behind these values is BindingDB's records for doi:10.7270/Q2S46Q8P (The Scripps Research Institute Molecular Screening Center, 2007).
